Legend:
[1] = system: Ras pathway (pcRaf, pAkt, pErk, pS6); test: Electroporation into HeLa cells, western blot of downstream signalling; format: cell-based, human; settings: electroporation of 50-300 µg protein
Method: (§1) HeLa cells were obtained from the American Type Culture Collection (ATCC) and were cultured in DMEM medium (Gibco) supplemented with 10% fetal bovine serum (FBS) (PAN-Biotech) and 1% penicillin/streptomycin (Gibco). Cells were cultured in a humidified incubator at 37 °C in the presence of 5% CO2. The identity of the cells was validated by STR profiling and the cells were tested negative for mycoplasma contamination.
(§2) Electroporation of full-length KRas constructs (KRasWT, KRasG13C, KRasG13C-edaGDP, KRasG13C:acetyledaGDP and KRasG13C-edaGppCp) was performed based on the protocol described by [Alex et al., 2019] using the Neon Transfection System Kit (Thermo Fisher). For electroporation, 3 million cells per experiment were harvested by trypsinization, washed with PBS, and resuspended in 85 µL of the electroporation buffer R (Thermo Fisher). Increasing amounts of recombinant protein samples for each construct (0, 50, 100, 200 and 300 µg) were diluted 1:1 in buffer R followed by the addition of 30 µL of this protein master mix to the cell suspension. This cellular slurry was loaded into a […] Neon Pipette Tip (Thermo Fisher) and electroporated with 2x35 ms pulses at 1000 V. After electroporation, the cells were washed twice with PBS (15 mL) to remove non-internalized extracellular protein and the cell pellet was resuspended in 2 mL complete growth media. Cells were transferred into six-well tissue culture plates (Sarstedt) and incubated for 24 hr at 37 °C and 5% CO2 in a humidified incubator for recovery before being processed for western blotting analysis.
After recovery of the electroporation, cells were washed twice with ice-cold PBS and lysed in 100 µL of phosphatase and protease inhibitor containing RIPA buffer (Cell Signaling Technology). Cells were incubated on ice for 30 min and then harvested by scraping followed by centrifugation at 14,000 rpm for 10 min at 4 °C. Protein concentrations were determined using the Pierce BCA protein assay (Thermo) following the manufacturer’s recommended procedure. Equal amounts of protein (10 µg) were analyzed by SDS-PAGE and transferred to Immobilon-FL PVDF membranes (Merck Millipore) using Pierce 1-step transfer buffer (Thermo) and the Pierce Power Blotter (Thermo). Membranes were washed with ddH2O for 5 min, blocked with OdysseyBlocking Buffer TBS (Li-Cor) for 1 hr at room temperature and then incubated with primary antibodies diluted in OdysseyBlocking Buffer TBS overnight at 4 °C with gentle agitation. […] Quantification of protein levels from western blots was performed using Empiria Studio (Li-Cor) (Figure 3B, C, Figure 3—figure supplements 6–9).

tErk = test: Electroporation into HeLa cells, western blot quantification; format: cell-based, human; settings: for tErk mean fold change: mean of cell lysates
Method: as §1, §2
(§3) After recovery of the electroporation, cells were washed twice with ice-cold PBS and lysed in 100 µL of phosphatase and protease inhibitor containing RIPA buffer (Cell Signaling Technology). Cells were incubated on ice for 30 min and then harvested by scraping followed by centrifugation at 14,000 rpm for 10 min at 4 °C. Protein concentrations were determined using the Pierce BCA protein assay (Thermo) following the manufacturer’s recommended procedure. Equal amounts of protein (10 µg) were analyzed by SDS-PAGE and transferred to Immobilon-FL PVDF membranes (Merck Millipore) using Pierce 1-step transfer buffer (Thermo) and the Pierce Power Blotter (Thermo). Membranes were washed with ddH2O for 5 min, blocked with OdysseyBlocking Buffer TBS (Li-Cor) for 1 hr at room temperature and then incubated with primary antibodies diluted in OdysseyBlocking Buffer TBS overnight at 4 °C with gentle agitation. KRas (Sigma Aldrich, SAB1404011-100UG), pcRafS338 (CST, 9427), tAkt1 (CST, 2938), pAktS473 (CST, 4060), tErk (CST, 4696), pErkT202/Y204 (CST, 4370), pS6S235/236 (CST, 4858), and β-actin (CST, 4970/Sigma-Aldrich, A5441) antibodies were used to detect the individual proteins. After primary antibody incubation, membranes were washed three times with TBS-T (50 mM Tris, 150 mM NaCl, 0.05% Tween 20, pH 7.4) for 5 min before being incubated with secondary antibodies (anti-mouse IgG (H+L) (DyLight 680 Conjugate) (CST, 5470) / anti-rabbit IgG (H+L) (DyLight 800 4 X PEG Conjugate) (CST, 5151)) diluted in OdysseyBlocking Buffer TBS for 1 hr at room temperature with gentle agitation. After secondary antibody incubation, the membranes were washed three times for 5 min with TBS-T and then scanned using an OdysseyCLx imaging system (Li-Cor). Quantification of protein levels from western blots was performed using Empiria Studio (Li-Cor) (Figure 3B, C, Figure 3—figure supplements 6–9).

tAkt1 = test: as above; format: cell-based, human; settings: for tAkt mean fold change: mean of cell lysates
Method: as §1, §2, §3

pAktS473 = test: as above; format: cell-based, human; settings: for pAkt mean fold change: mean of cell lysates
Method: as §1, §2, §3

pErkT202/Y204 = test: as above; format: cell-based, human; settings: for pErk mean fold change: mean of cell lysates
Method: as §1, §2, §3

pcRafS338 = test: as above; format: cell-based, human; settings: for pcRaf mean fold change: mean of cell lysates
Method: as §1, §2, §3

pS6S235/236 = test: as above; format: cell-based, human; settings: for pS6 mean fold change: mean of cell lysates
Method: as §1, §2, §3

SOS = test: Guanine nucleotide-exchange factor assay (mantdGDP fluorescence); format: biochemical; settings: 5 µM KRas1-169, 10 µM mantdGDP, 0.25 or 0.5 µM SOS
Method: SOS-catalysed nucleotide exchange was monitored at 25 °C in a FluoroMax-3 spectrofluorometer (excitation at 360 nm, emission at 440 nm) in 20 mM HEPES (pH 7.5), 100 mM NaCl, 2 mM MgCl2, and 1 mM TCEP. 5 µM KRas1-169 was mixed with 10 µM mantdGDP and subsequently with different concentrations of SOS (0.25 µM and 0.5 µM) (Figure 3A; Figure 3—figure supplement 1).

KRasG13C:acetyledaGDP: KRasG13C non-covalently loaded with acetyledaGDP, control
downstream signalling (pcRaf, pAkt, pErk, pS6) [1]: activation of the Ras pathway comparable to KRasG13C was observed | tErk fold change (tErk; 50 µg, Cell lysate 1): 0.88 | tErk fold change (tErk; 50 µg, Cell lysate 2): 0.96 | tErk fold change (tErk; 50 µg, Cell lysate 3): 0.92 | tErk mean fold change (tErk; 50 µg): 0.92 | tErk fold change (tErk; 100 µg, Cell lysate 1): 0.68 | tErk fold change (tErk; 100 µg, Cell lysate 2): 0.93 | tErk fold change (tErk; 100 µg, Cell lysate 3): 0.86 | tErk mean fold change (tErk; 100 µg): 0.82 | tErk fold change (tErk; 200 µg, Cell lysate 1): 0.80 | tErk fold change (tErk; 200 µg, Cell lysate 2): 0.93 | tErk fold change (tErk; 200 µg, Cell lysate 3): 0.97 | tErk mean fold change (tErk; 200 µg): 0.90 | tErk fold change (tErk; 300 µg, Cell lysate 1): 0.62 | tErk fold change (tErk; 300 µg, Cell lysate 2): 0.90 | tErk fold change (tErk; 300 µg, Cell lysate 3): 1.12 | tErk mean fold change (tErk; 300 µg): 0.88 | tAkt fold change (tAkt1; 50 µg, Cell lysate 1): 0.92 | tAkt fold change (tAkt1; 50 µg, Cell lysate 2): 2.42 | tAkt fold change (tAkt1; 50 µg, Cell lysate 3): 1.53 | tAkt mean fold change (tAkt1; 50 µg): 1.62 | tAkt fold change (tAkt1; 100 µg, Cell lysate 1): 1.23 | tAkt fold change (tAkt1; 100 µg, Cell lysate 2): 2.03 | tAkt fold change (tAkt1; 100 µg, Cell lysate 3): 1.95 | tAkt mean fold change (tAkt1; 100 µg): 1.74 | tAkt fold change (tAkt1; 200 µg, Cell lysate 1): 1.36 | tAkt fold change (tAkt1; 200 µg, Cell lysate 2): 3.63 | tAkt fold change (tAkt1; 200 µg, Cell lysate 3): 1.80 | tAkt mean fold change (tAkt1; 200 µg): 2.26 | tAkt fold change (tAkt1; 300 µg, Cell lysate 1): 0.81 | tAkt fold change (tAkt1; 300 µg, Cell lysate 2): 4.18 | tAkt fold change (tAkt1; 300 µg, Cell lysate 3): 2.17 | tAkt mean fold change (tAkt1; 300 µg): 2.39 | pAkt fold change (pAktS473; 50 µg, Cell lysate 1): 0.68 | pAkt fold change (pAktS473; 50 µg, Cell lysate 2): 2.89 | pAkt fold change (pAktS473; 50 µg, Cell lysate 3): 3.02 | pAkt mean fold change (pAktS473; 50 µg): 2.20 | pAkt fold change (pAktS473; 100 µg, Cell lysate 1): 0.79 | pAkt fold change (pAktS473; 100 µg, Cell lysate 2): 4.04 | pAkt fold change (pAktS473; 100 µg, Cell lysate 3): 4.42 | pAkt mean fold change (pAktS473; 100 µg): 3.08 | pAkt fold change (pAktS473; 200 µg, Cell lysate 1): 1.19 | pAkt fold change (pAktS473; 200 µg, Cell lysate 2): 9.05 | pAkt fold change (pAktS473; 200 µg, Cell lysate 3): 6.20 | pAkt mean fold change (pAktS473; 200 µg): 5.48 | pAkt fold change (pAktS473; 300 µg, Cell lysate 1): 2.16 | pAkt fold change (pAktS473; 300 µg, Cell lysate 2): 13.30 | pAkt fold change (pAktS473; 300 µg, Cell lysate 3): 3.81 | pAkt mean fold change (pAktS473; 300 µg): 6.42 | pErk fold change (pErkT202/Y204; 50 µg, Cell lysate 1): 3.76 | pErk fold change (pErkT202/Y204; 50 µg, Cell lysate 2): 14.50 | pErk fold change (pErkT202/Y204; 50 µg, Cell lysate 3): 5.88 | pErk mean fold change (pErkT202/Y204; 50 µg): 8.05 | pErk fold change (pErkT202/Y204; 100 µg, Cell lysate 1): 5.77 | pErk fold change (pErkT202/Y204; 100 µg, Cell lysate 2): 17.10 | pErk fold change (pErkT202/Y204; 100 µg, Cell lysate 3): 6.22 | pErk mean fold change (pErkT202/Y204; 100 µg): 9.70 | pErk fold change (pErkT202/Y204; 200 µg, Cell lysate 1): 14.00 | pErk fold change (pErkT202/Y204; 200 µg, Cell lysate 2): 22.30 | pErk fold change (pErkT202/Y204; 200 µg, Cell lysate 3): 9.35 | pErk mean fold change (pErkT202/Y204; 200 µg): 15.22 | pErk fold change (pErkT202/Y204; 300 µg, Cell lysate 1): 17.00 | pErk fold change (pErkT202/Y204; 300 µg, Cell lysate 2): 29.30 | pErk fold change (pErkT202/Y204; 300 µg, Cell lysate 3): 10.30 | pErk mean fold change (pErkT202/Y204; 300 µg): 18.87 | pcRaf fold change (pcRafS338; 50 µg, Cell lysate 1): 8.73 | pcRaf fold change (pcRafS338; 50 µg, Cell lysate 2): 1.10 | pcRaf fold change (pcRafS338; 50 µg, Cell lysate 3): 15.70 | pcRaf mean fold change (pcRafS338; 50 µg): 8.51 | pcRaf fold change (pcRafS338; 100 µg, Cell lysate 1): 8.39 | pcRaf fold change (pcRafS338; 100 µg, Cell lysate 2): 1.51 | pcRaf fold change (pcRafS338; 100 µg, Cell lysate 3): 22.70 | pcRaf mean fold change (pcRafS338; 100 µg): 10.87 | pcRaf fold change (pcRafS338; 200 µg, Cell lysate 1): 13.70 | pcRaf fold change (pcRafS338; 200 µg, Cell lysate 2): 2.17 | pcRaf fold change (pcRafS338; 200 µg, Cell lysate 3): 32.40 | pcRaf mean fold change (pcRafS338; 200 µg): 16.09 | pcRaf fold change (pcRafS338; 300 µg, Cell lysate 1): 10.10 | pcRaf fold change (pcRafS338; 300 µg, Cell lysate 2): 3.88 | pcRaf fold change (pcRafS338; 300 µg, Cell lysate 3): 30.30 | pcRaf mean fold change (pcRafS338; 300 µg): 14.76 | pS6 fold change (pS6S235/236; 50 µg, Cell lysate 1): 1.20 | pS6 fold change (pS6S235/236; 50 µg, Cell lysate 2): 4.69 | pS6 fold change (pS6S235/236; 50 µg, Cell lysate 3): 4.24 | pS6 mean fold change (pS6S235/236; 50 µg): 3.38 | pS6 fold change (pS6S235/236; 100 µg, Cell lysate 1): 1.62 | pS6 fold change (pS6S235/236; 100 µg, Cell lysate 2): 7.62 | pS6 fold change (pS6S235/236; 100 µg, Cell lysate 3): 3.73 | pS6 mean fold change (pS6S235/236; 100 µg): 4.32 | pS6 fold change (pS6S235/236; 200 µg, Cell lysate 1): 3.38 | pS6 fold change (pS6S235/236; 200 µg, Cell lysate 2): 9.20 | pS6 fold change (pS6S235/236; 200 µg, Cell lysate 3): 7.24 | pS6 mean fold change (pS6S235/236; 200 µg): 6.61 | pS6 fold change (pS6S235/236; 300 µg, Cell lysate 1): 2.82 | pS6 fold change (pS6S235/236; 300 µg, Cell lysate 2): 9.13 | pS6 fold change (pS6S235/236; 300 µg, Cell lysate 3): 7.42 | pS6 mean fold change (pS6S235/236; 300 µg): 6.46 | SOS-catalysed nucleotide exchange (SOS): efficiently catalysed nucleotide exchange
